pIC50, pKd, pKi: −log10 of the molar value.
Key:
[1] = target: T1, Bromodomain-containing protein 4 (Homo sapiens, UniProt O60885); experiment: Displacement of SGRG-K(Ac)-GG-K(Ac)-GLG-K(Ac)-GGA-K(Ac)-RHRKVGG-K(Biotin) from Europium chelated human BRD4 bromodomain 1 (49 to 170 residues) measured after 2 hrs by TR-FRET assay
[2] = target: T1, Bromodomain-containing protein 4; experiment: Displacement of SGRG-K(Ac)-GG-K(Ac)-GLG-K(Ac)-GGA-K(Ac)-RHRKVGG-K(Biotin) from Europium chelated human BRD4 bromodomain 2 (342 to 460 residues) measured after 2 hrs by TR-FRET assay
[3] = target: T2, NAD-dependent protein deacetylase sirtuin-2 (Homo sapiens, UniProt Q8IXJ6); experiment: Inhibition of human recombinant SIRT2 assessed as inhibition of substrate deacetylation using Gln-Pro-Lys-Lys- (epsilon acetyl) AMC peptide as substrate in presence of NAD+ measured by fluorescence based analysis
T2 sequence (Q8IXJ6 whole entry): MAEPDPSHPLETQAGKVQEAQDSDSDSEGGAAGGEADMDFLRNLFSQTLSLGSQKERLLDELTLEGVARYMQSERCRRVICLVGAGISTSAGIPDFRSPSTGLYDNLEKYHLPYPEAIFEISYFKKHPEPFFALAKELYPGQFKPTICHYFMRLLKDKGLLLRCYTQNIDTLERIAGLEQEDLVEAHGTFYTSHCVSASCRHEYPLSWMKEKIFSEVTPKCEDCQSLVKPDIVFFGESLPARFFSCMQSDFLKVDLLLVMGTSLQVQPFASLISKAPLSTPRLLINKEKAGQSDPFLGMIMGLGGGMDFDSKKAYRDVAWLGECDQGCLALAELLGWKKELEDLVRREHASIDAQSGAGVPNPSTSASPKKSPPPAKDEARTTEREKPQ

[4] = target: T2, NAD-dependent protein deacetylase sirtuin-2; experiment: Binding affinity to chip-immobilized recombinant human SIRT2 measured after 300 secs by surface plasmon resonance method
[5] = target: T3, NAD-dependent protein deacetylase sirtuin-1 (Homo sapiens, UniProt Q96EB6); experiment: Inhibition of human recombinant SIRT1 assessed as inhibition of substrate deacetylation using Gln-Pro-Lys-Lys- (epsilon acetyl) AMC peptide as substrate in presence of NAD+ measured by fluorescence based analysis
T3 sequence (Q96EB6 whole entry): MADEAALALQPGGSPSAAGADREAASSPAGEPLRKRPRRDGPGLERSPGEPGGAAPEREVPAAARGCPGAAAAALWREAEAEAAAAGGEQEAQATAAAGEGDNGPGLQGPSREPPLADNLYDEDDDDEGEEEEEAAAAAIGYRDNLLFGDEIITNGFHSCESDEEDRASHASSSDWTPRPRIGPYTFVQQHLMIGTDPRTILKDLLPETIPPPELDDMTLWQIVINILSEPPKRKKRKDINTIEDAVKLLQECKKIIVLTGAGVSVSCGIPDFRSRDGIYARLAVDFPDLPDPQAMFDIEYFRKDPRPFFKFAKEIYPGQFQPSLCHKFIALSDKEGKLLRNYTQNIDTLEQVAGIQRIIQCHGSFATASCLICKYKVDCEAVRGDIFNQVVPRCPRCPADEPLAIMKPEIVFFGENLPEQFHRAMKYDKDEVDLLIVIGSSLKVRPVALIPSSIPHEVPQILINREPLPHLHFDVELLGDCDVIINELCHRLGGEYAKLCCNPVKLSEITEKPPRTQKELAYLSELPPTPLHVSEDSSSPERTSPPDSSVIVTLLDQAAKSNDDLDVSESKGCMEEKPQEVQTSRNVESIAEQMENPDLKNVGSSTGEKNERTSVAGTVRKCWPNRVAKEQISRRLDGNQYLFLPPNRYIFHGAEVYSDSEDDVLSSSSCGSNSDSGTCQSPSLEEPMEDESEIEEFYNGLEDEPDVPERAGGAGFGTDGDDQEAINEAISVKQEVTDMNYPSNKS

[6] = target: T4, NAD-dependent protein deacetylase sirtuin-3, mitochondrial (Homo sapiens, UniProt Q9NTG7); experiment: Inhibition of human recombinant SIRT3 assessed as inhibition of substrate deacetylation using Gln-Pro-Lys-Lys- (epsilon acetyl) AMC peptide as substrate in presence of NAD+ measured by fluorescence based analysis
T4 sequence (Q9NTG7 whole entry): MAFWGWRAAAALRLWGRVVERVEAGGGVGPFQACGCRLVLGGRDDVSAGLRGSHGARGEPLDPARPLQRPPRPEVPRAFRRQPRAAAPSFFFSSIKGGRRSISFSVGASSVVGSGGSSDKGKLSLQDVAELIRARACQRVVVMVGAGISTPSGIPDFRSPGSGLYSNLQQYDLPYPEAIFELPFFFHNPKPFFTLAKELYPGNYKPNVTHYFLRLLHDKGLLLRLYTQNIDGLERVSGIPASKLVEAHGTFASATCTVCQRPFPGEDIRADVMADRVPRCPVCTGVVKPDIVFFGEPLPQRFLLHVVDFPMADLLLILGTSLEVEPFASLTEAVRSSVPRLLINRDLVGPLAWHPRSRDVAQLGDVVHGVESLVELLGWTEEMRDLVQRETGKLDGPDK

[7] = target: T3, NAD-dependent protein deacetylase sirtuin-1; experiment: Binding affinity to chip-immobilized recombinant human SIRT1 measured after 300 secs by surface plasmon resonance method
[8] = target: T4, NAD-dependent protein deacetylase sirtuin-3, mitochondrial; experiment: Binding affinity to chip-immobilized recombinant human SIRT3 measured after 300 secs by surface plasmon resonance method

| Structure (SMILES) | pIC50 [3] | pKi [3] | also measured |
| --- | --- | --- | --- |
| CNC(=O)c1cn2c3c(c(N4CCN(C)CC4)c(F)cc3c1=O)OCC2C (configuration not stated) |  |  | pIC50 [1]: 2.95; pIC50 [2]: 3.49 |
| O=C(NCc1ccc(CNC(=O)c2cccc(-c3cccnc3)c2)cc1)c1cccc(-c2cccnc2)c1 | 4.04 | 4.59 |  |
| CC1COc2c(N3CCN(C)CC3)c(F)cc3c(=O)c(C(=O)NCCOCCOCCOCCNC(=O)CCc4nc(-c5ccncc5)no4)cn1c23 (configuration not stated) | 4.62 | 5.15 | pKd [4]: 4.62 |
| CNC(=O)CSC |  |  | pIC50 [2]: 2.94 |
| CC1COc2c(N3CCN(C)CC3)c(F)cc3c(=O)c(C(=O)NCc4ccc(CNC(=O)CCc5nc(-c6ccncc6)no5)cc4)cn1c23 (configuration not stated) | 3.71 | 4.25 |  |
| CC1COc2c(N3CCN(C)CC3)c(F)cc3c(=O)c(C(=O)NCCCCCC(=O)N(C)CCCN4c5ccccc5CCc5ccccc54)cn1c23 (configuration not stated) |  |  | pIC50 [1]: 3.97; pIC50 [2]: 4.52 |
| CC1COc2c(N3CCN(C)CC3)c(F)cc3c(=O)c(C(=O)NCc4ccc(CNC(=O)c5cn6c7c(c(N8CCN(C)CC8)c(F)cc7c5=O)OCC6C)cc4)cn1c23 (configuration not stated) | 3.73 | 4.27 |  |
| CSCC(=O)NCCCCCC(=O)N(C)CCCN1c2ccccc2CCc2ccccc21 |  |  | pIC50 [1]: 3.01; pIC50 [2]: 3.64 |
| O=C1CC(C(=O)NCCCNCC(=O)C2CC3CCC2C3)c2ccccc21 (configuration not stated) |  |  | pIC50 [5]: 3.48; pKi [5]: 3.69 |
| O=C1CC(C(=O)NCCCCCCNCC(=O)C2CC3CCC2C3)c2ccccc21 (configuration not stated) | 3.03 | 3.57 | pIC50 [6]: 3.21; pKi [6]: 3.35; pIC50 [5]: 4.11; pKi [5]: 4.32 |
| CC1COc2c(N3CCN(C)CC3)c(F)cc3c(=O)c(C(=O)NCCOCCOCCNC(=O)c4cn5c6c(c(N7CCN(C)CC7)c(F)cc6c4=O)OCC5C)cn1c23 (configuration not stated) | 3.42 | 3.95 |  |
| O=C1CC(C(=O)NCc2ccc(CNCC(=O)C3CC4CCC3C4)cc2)c2ccccc21 (configuration not stated) |  |  | pIC50 [5]: 3.71; pKi [5]: 3.92 |
| O=C1CC(C(=O)NCCOCCOCCOCCNCC(=O)C2CC3CCC2C3)c2ccccc21 (configuration not stated) |  |  | pIC50 [5]: 2.98; pKi [5]: 3.19 |
| CC1COc2c(N3CCN(C)CC3)c(F)cc3c(=O)c(C(=O)NCCOCCOCCOCCNC(=O)c4cn5c6c(c(N7CCN(C)CC7)c(F)cc6c4=O)OCC5C)cn1c23 (configuration not stated) | 3.50 | 4.04 |  |
| COc1cc(CC(=O)NCCOCCOCCNC(=O)c2cn3c4c(c(N5CCN(C)CC5)c(F)cc4c2=O)OCC3C)cc(OC)c1OC (configuration not stated) | 4.49 | 5.05 | pKd [4]: 4.49 |
| O=C(NCCOCCOCCNC(=O)c1cccc(-c2cccnc2)c1)c1cccc(-c2cccnc2)c1 | 4.00 | 4.54 |  |
| COc1cc(CC(=O)NCCOCCOCCOCCNC(=O)c2cn3c4c(c(N5CCN(C)CC5)c(F)cc4c2=O)OCC3C)cc(OC)c1OC (configuration not stated) | 5.15 | 5.70 | pKd [4]: 5.15 |

| Structure (SMILES) | pIC50 [3] | pKi [3] | also measured |
| --- | --- | --- | --- |
| COc1cc(CC(=O)NCc2ccc(CNC(=O)c3cn4c5c(c(N6CCN(C)CC6)c(F)cc5c3=O)OCC4C)cc2)cc(OC)c1OC (configuration not stated) | 3.01 | 3.54 |  |
| CC1COc2c(N3CCN(C)CC3)c(F)cc3c(=O)c(C(=O)NCCOCCOCCNC(=O)CCc4nc(-c5ccncc5)no4)cn1c23 (configuration not stated) | 3.73 | 4.27 |  |
| COc1cc(CC(=O)NCCCNC(=O)c2cccc(-c3cccnc3)c2)cc(OC)c1OC | 3.52 | 4.06 |  |
| COc1cc(CC(=O)NCCCCCCNC(=O)c2cn3c4c(c(N5CCN(C)CC5)c(F)cc4c2=O)OCC3C)cc(OC)c1OC (configuration not stated) | 4.48 | 5.05 | pKd [4]: 4.48 |
| COc1cc(CC(=O)NCCOCCOCCNC(=O)c2cccc(-c3cccnc3)c2)cc(OC)c1OC | 4.01 | 4.55 |  |
| O=C(NCCCCCCNC(=O)c1cccc(-c2cccnc2)c1)c1cccc(-c2cccnc2)c1 | 4.41 | 4.92 | pKd [4]: 4.40; pKi [5]: 4.14; pKd [7]: 3.93 |
| CC1COc2c(N3CCN(C)CC3)c(F)cc3c(=O)c(C(=O)NCCCNC(=O)c4cn5c6c(c(N7CCN(C)CC7)c(F)cc6c4=O)OCC5C)cn1c23 (configuration not stated) | 3.52 | 4.06 |  |
| CC1COc2c(N3CCN(C)CC3)c(F)cc3c(=O)c(C(=O)N(C)CCCN4c5ccccc5CCc5ccccc54)cn1c23 (configuration not stated) |  |  | pIC50 [1]: 3.64; pIC50 [2]: 4.39 |
| O=C1CC(C(=O)NCCOCCOCCNCC(=O)C2CC3CCC2C3)c2ccccc21 (configuration not stated) |  |  | pIC50 [5]: 3.53; pKi [5]: 3.74 |
| COc1cc(CC(=O)NCCOCCOCCOCCNC(=O)c2cccc(-c3cccnc3)c2)cc(OC)c1OC | 4.03 | 4.57 |  |
| COc1cc(CC(=O)NCCCNC(=O)c2cn3c4c(c(N5CCN(C)CC5)c(F)cc4c2=O)OCC3C)cc(OC)c1OC (configuration not stated) | 4.41 | 4.96 | pKd [4]: 4.41 |
| COc1cc(CC(=O)NCCCCCCNC(=O)c2cccc(-c3cccnc3)c2)cc(OC)c1OC | 4.36 | 4.89 | pKi [6]: 3.45; pKd [8]: 3.31; pKd [4]: 4.36; pKi [5]: 4.07; pKd [7]: 3.86 |
| COc1cc(CC(=O)NCc2ccc(CNC(=O)c3cccc(-c4cccnc4)c3)cc2)cc(OC)c1OC | 4.60 | 5.15 | pKi [6]: 3.55; pKd [8]: 3.41; pKd [4]: 4.60 |
| O=C(NCCOCCOCCOCCNC(=O)c1cccc(-c2cccnc2)c1)c1cccc(-c2cccnc2)c1 | 4.66 | 5.22 | pKi [6]: 3.67; pKd [8]: 3.53; pKd [4]: 4.66; pKi [5]: 4.46; pKd [7]: 4.25 |
| CSCC(=O)N(C)CCCN1c2ccccc2CCc2ccccc21 |  |  | pIC50 [1]: 2.88; pIC50 [2]: 3.82 |
| CC1COc2c(N3CCN(C)CC3)c(F)cc3c(=O)c(C(=O)NCCCNC(=O)CCc4nc(-c5ccncc5)no4)cn1c23 (configuration not stated) | 4.28 | 4.82 |  |
| CC1COc2c(N3CCN(C)CC3)c(F)cc3c(=O)c(C(=O)NCCCCCCNC(=O)CCc4nc(-c5ccncc5)no4)cn1c23 (configuration not stated) | 3.97 | 4.51 |  |

— ChEMBL document CHEMBL4834484, “Identification of isoform/domain-selective fragments from the selection of DNA-encoded dynamic library” (Bioorg Med Chem, 2021)
